{"source": "patent US20220204502A1", "about": "“CRYSTAL POLYMORPHISM OF PI3K INHIBITOR AND METHOD FOR PREPARING SAME” (BORYUNG PHARMACEUTICAL CO., LTD, priority 2019, published 2022)", "key": {"[1]": {"assay": "Hygroscopicity (Dynamic Vapor Sorption, DVS) measurement", "format": "physicochemical", "conditions": "25° C.; for hygroscopicity (overall assessment): DVS 0 to 95 % RH", "protocol": "The hygroscopicity was tested by using the crystal form I of above Example 8.\ni) Model name: DVS Intrinsic (Surface Measurement Systems LTD. UK)\nii) Humidity: Initial 0% maximum 95%\niii) Experiment time: 7 hours\nAfter placing a certain amount (10 mg) of the crystal form I compound prepared in Example 8 on a sample pan in a sample chamber, nitrogen was flowed through a tube connected into the sample chamber for the first one hour so as to remove moisture in the chamber and moisture of the sample. Humidity in the chamber was controlled by controlling water vapor, and target relative humidity was increased step by step from initial 0% to 10% every 20 minutes, so as to measure a moisture content of crystal form I for 205 min. A mass of the sample was measured […] (from 0% RH to 95% RH) to collect data at 10% RH intervals, and a change in weight of the sample according to the increase and decrease of humidity was graphed."}, "[2]": {"assay": "Pharmacokinetic (PK) test, oral capsule in beagle dog", "format": "in vivo", "conditions": "100 mg oral, powder in capsule", "protocol": "A pharmacokinetic (PK) experiment was performed on the crystal form I compound according to Example 8.\nThe powder of the crystal form I compound of Example 8 was filled into a capsule in an amount of 100 mg, and the capsule was orally administered to a beagle dog at 100 mg once a day, and then the biokinetics of the drug was confirmed.\nSpecifically, 100 mg of the crystal form I compound was orally administered to the beagle dog, and blood was collected at a predetermined time, so as to measure a concentration of (S)-4-((1-(4,8-dichloro-1-oxo-2-phenyl-1,2-dihydroisoquinoline-3-yl)ethyl)amino)pyrido[2,3-d]pyrimidine-5(8H)-one. With respect to pharmacokinetic parameters, the BA Calc 2007 program was used to calculate an area under the plasma concentration-time curve from dosing time to final plasma concentration quantification time t (AUCt), area under the plasma concentration-time curve from dosing time to infinite time (AUCi), peak plasma concentration (Cmax), time for maximum plasma concentration (Tmax), and terminal elimination half-life (t1/2). As a result, a significance between substances was confirmed by Student t-test (SPSS) at a 95% confidence interval, and the results thereof are shown in table 2 below."}, "[3]": {"assay": "Accelerated stability test (HPLC impurities, content, crystal form)", "format": "physicochemical", "conditions": "for Crystal form / Content / Individual impurity / Total impurity: 4θ±2° C. and RH 75±5%; for Content / Individual impurity / Total impurity: wt %", "protocol": "The powder of the crystal form I compound according to above Example 8 was doubly packed with an LDPE bag, then packed with a paperboard tube, and left alone at 4θ±2° C. and RH 75±5% for zero and six months, after which impurities were measured by using a high speed liquid chromatography under the following conditions.\n<HPLC Conditions> • Detector: Ultraviolet absorption spectrophotometer (wavelength: 307 nm) • Column: Kromasil 100-5C18 (4.6×250 mm, […]) or a column similar thereto • Column temperature: 25° C. • Injection amount: 10 μl • Mobile phase: Mobile phase A—20 mmol/L of ammonium acetate buffer solution (pH 4.5, acetic acid), Mobile phase B—acetonitrile:methanol=8:2"}, "Long-term stability test": {"assay": "Long-term stability test", "format": "physicochemical", "conditions": "for Content / Individual impurity / Total impurity / Crystal form: 25±2° C. and RH 6θ±5%; for Content / Individual impurity / Total impurity: capsule in PTP packing, wt %", "protocol": "The powder of the crystal form I compound according to above Example 8 was doubly packed with an LDPE bag, then packed with a paperboard tube, and filled into a capsule, after which the capsule was subjected to PTP packing to carry out a long-term stability test (25±2° C. and RH 6θ±5%)."}, "[4]": {"assay": "Stress stability test (temperature / humidity)", "format": "physicochemical", "conditions": "for Content / Individual impurity / Total impurity: wt %", "protocol": "The crystal form I prepared in above Example 8 was left alone under the stress conditions (temperature: 60° C., humidity: 40° C., RH75%) for 0, 7 and 14 days, after which impurities were measured by using high speed liquid chromatography."}, "[5]": {"conditions": "stress: humidity (40° C., RH75%), 7 days"}, "[6]": {"conditions": "stress: humidity (40° C., RH75%), 14 days"}, "[7]": {"conditions": "stress: humidity (40° C., RH75%), zero day (initial)"}, "[8]": {"conditions": "stress: temperature (60° C.), 7 days"}, "[9]": {"conditions": "stress: temperature (60° C.), 14 days"}, "[10]": {"conditions": "stress: temperature (60° C.), zero day (initial)"}}}
{"smiles": "C[C@H](Nc1ncnc2[nH]ccc(=O)c12)c1c(Cl)c2cccc(Cl)c2c(=O)n1-c1ccccc1", "note": "[Crystal form I, (S)-4-((1-(4,8-dichloro-1-oxo-2-phenyl-1,2-dihydroisoquinoline-3-yl)ethyl)amino)pyrido[2,3-d]pyrimidin-5(8H)-one]", "values": [{"measurement": "hygroscopicity (overall assessment)", "setting": "[1]", "result": "non-hygroscopicity"}, {"measurement": "hygroscopicity (overall assessment)", "setting": "[1]; listed as crystal form I", "result": "remarkably excellent non-hygroscopicity"}, {"measurement": "water (moisture) content by DVS", "setting": "[1]; relative humidity 0.0 %", "result": 0.01, "unit": "%"}, {"measurement": "water (moisture) content by DVS", "setting": "[1]; relative humidity 10.0 %", "result": 0.06, "unit": "%"}, {"measurement": "water (moisture) content by DVS", "setting": "[1]; relative humidity 20.0 %", "result": 0.11, "unit": "%"}, {"measurement": "water (moisture) content by DVS", "setting": "[1]; relative humidity 30.0 %", "result": 0.16, "unit": "%"}, {"measurement": "water (moisture) content by DVS", "setting": "[1]; relative humidity 40.0 %", "result": 0.2, "unit": "%"}, {"measurement": "water (moisture) content by DVS", "setting": "[1]; relative humidity 50.0 %", "result": 0.24, "unit": "%"}, {"measurement": "water (moisture) content by DVS", "setting": "[1]; relative humidity 60.0 %", "result": 0.28, "unit": "%"}, {"measurement": "water (moisture) content by DVS", "setting": "[1]; relative humidity 70.0 %", "result": 0.33, "unit": "%"}, {"measurement": "water (moisture) content by DVS", "setting": "[1]; relative humidity 80.0 %", "result": 0.38, "unit": "%"}, {"measurement": "water (moisture) content by DVS", "setting": "[1]; relative humidity 90.0 %", "result": 0.46, "unit": "%"}, {"measurement": "water (moisture) content by DVS", "setting": "[1]; relative humidity 95.0 %", "result": 0.54, "unit": "%"}, {"measurement": "bioavailability (in words)", "setting": "[2]", "result": "excellent bioavailability"}, {"measurement": "concentration in blood (in words)", "setting": "[2]", "result": "high concentration in blood"}, {"measurement": "AUC(0-inf)", "setting": "[2]; plasma", "result": 559, "unit": "ng·h/mL"}, {"measurement": "AUC(0-t)", "setting": "[2]; plasma", "result": 540, "unit": "ng·h/mL"}, {"measurement": "Cmax", "setting": "[2]; plasma", "result": 215, "unit": "ng/mL"}, {"measurement": "Tmax", "setting": "[2]; plasma", "result": 1.25, "unit": "h"}, {"measurement": "half-life", "setting": "[2]; plasma", "result": 1.56, "unit": "h"}, {"measurement": "Crystal form", "setting": "[3]; six months", "result": "Form I"}, {"measurement": "Content", "setting": "[3]; six months", "result": 99.7, "unit": "%"}, {"measurement": "Individual impurity", "setting": "[3]; six months", "result": 0.02, "unit": "%"}, {"measurement": "Total impurity", "setting": "[3]; six months", "result": 0.16, "unit": "%"}, {"measurement": "Crystal form", "setting": "[3]; zero month (initial)", "result": "Form I"}, {"measurement": "Content", "setting": "[3]; zero month (initial)", "result": 100.0, "unit": "%"}, {"measurement": "Individual impurity", "setting": "[3]; zero month (initial)", "result": 0.02, "unit": "%"}, {"measurement": "Total impurity", "setting": "[3]; zero month (initial)", "result": 0.14, "unit": "%"}, {"measurement": "change of impurities and content (in words)", "setting": "[3]; accelerated conditions, six months", "result": "neither significant change nor change with time"}, {"measurement": "Content", "setting": "Long-term stability test; six months", "result": 99.7, "unit": "%"}, {"measurement": "Individual impurity", "setting": "Long-term stability test; six months", "result": 0.02, "unit": "%"}, {"measurement": "Total impurity", "setting": "Long-term stability test; six months", "result": 0.15, "unit": "%"}, {"measurement": "Content", "setting": "Long-term stability test; zero month (initial)", "result": 100.0, "unit": "%"}, {"measurement": "Individual impurity", "setting": "Long-term stability test; zero month (initial)", "result": 0.02, "unit": "%"}, {"measurement": "Total impurity", "setting": "Long-term stability test; zero month (initial)", "result": 0.14, "unit": "%"}, {"measurement": "Crystal form", "setting": "Long-term stability test; six months", "result": "Form I"}, {"measurement": "Crystal form", "setting": "Long-term stability test; zero month (initial)", "result": "Form I"}, {"measurement": "change of impurities and content (in words)", "setting": "Long-term stability test; long-term conditions, six months", "result": "neither significant change nor change with time"}, {"measurement": "change of impurities and content (in words)", "setting": "[4]; stress conditions, 0, 7 and 14 days", "result": "neither significant change nor change with time"}, {"measurement": "Content", "setting": "[4]; [5]", "result": 99.6, "unit": "%"}, {"measurement": "Individual impurity", "setting": "[4]; [5]", "result": 0.58, "unit": "%"}, {"measurement": "Total impurity", "setting": "[4]; [5]", "result": 0.64, "unit": "%"}, {"measurement": "Content", "setting": "[4]; [6]", "result": 100.8, "unit": "%"}, {"measurement": "Individual impurity", "setting": "[4]; [6]", "result": 0.58, "unit": "%"}, {"measurement": "Total impurity", "setting": "[4]; [6]", "result": 0.65, "unit": "%"}, {"measurement": "Content", "setting": "[4]; [7]", "result": 99.1, "unit": "%"}, {"measurement": "Individual impurity", "setting": "[4]; [7]", "result": 0.58, "unit": "%"}, {"measurement": "Total impurity", "setting": "[4]; [7]", "result": 0.66, "unit": "%"}, {"measurement": "Content", "setting": "[4]; [8]", "result": 100.0, "unit": "%"}, {"measurement": "Individual impurity", "setting": "[4]; [8]", "result": 0.58, "unit": "%"}, {"measurement": "Total impurity", "setting": "[4]; [8]", "result": 0.64, "unit": "%"}, {"measurement": "Content", "setting": "[4]; [9]", "result": 99.7, "unit": "%"}, {"measurement": "Individual impurity", "setting": "[4]; [9]", "result": 0.58, "unit": "%"}, {"measurement": "Total impurity", "setting": "[4]; [9]", "result": 0.65, "unit": "%"}, {"measurement": "Content", "setting": "[4]; [10]", "result": 99.1, "unit": "%"}, {"measurement": "Individual impurity", "setting": "[4]; [10]", "result": 0.58, "unit": "%"}, {"measurement": "Total impurity", "setting": "[4]; [10]", "result": 0.66, "unit": "%"}]}
